Assay results published in ChEMBL document CHEMBL1140165, “Rotationally constrained 2,4-diamino-5,6-disubstituted pyrimidines: a new class of histamine H4 receptor antagonists with improved druglikeness and in vivo efficacy in pain and inflammation models” (J Med Chem, 2008).
Activity calls are given as the source filed them. The calls are words filed in the database; no cut-off is given here.

What was measured:
[1] = test system: BMMC; assay: Blockade of histamine-induced morphological changes in BALB/c mouse BMMC by flow cytometry; assay type: functional, cell-based
[2] = test system: Liver microsomes; assay: Metabolic stability in rat liver microsomes; assay type: ADME, Microsome
[3] = test system: Liver microsomes; assay: Metabolic stability in human liver microsomes; assay type: ADME, Microsome
[4] = Metabolic stability in mouse liver microsomes; assay type: ADME, Microsome
[5] = Protein binding in rat; assay type: ADME, organism-based; details: in vivo, read-out: PB (converted)
[6] = Protein binding in human; assay type: ADME, organism-based; details: in vivo, read-out: PB (converted)
[7] = target: Cytochrome P450 3A4 (Homo sapiens, UniProt P08684); assay: Inhibition of CYP3A4 upto 10 uM; assay type: ADME
Sequence of Cytochrome P450 3A4 (P08684 whole entry): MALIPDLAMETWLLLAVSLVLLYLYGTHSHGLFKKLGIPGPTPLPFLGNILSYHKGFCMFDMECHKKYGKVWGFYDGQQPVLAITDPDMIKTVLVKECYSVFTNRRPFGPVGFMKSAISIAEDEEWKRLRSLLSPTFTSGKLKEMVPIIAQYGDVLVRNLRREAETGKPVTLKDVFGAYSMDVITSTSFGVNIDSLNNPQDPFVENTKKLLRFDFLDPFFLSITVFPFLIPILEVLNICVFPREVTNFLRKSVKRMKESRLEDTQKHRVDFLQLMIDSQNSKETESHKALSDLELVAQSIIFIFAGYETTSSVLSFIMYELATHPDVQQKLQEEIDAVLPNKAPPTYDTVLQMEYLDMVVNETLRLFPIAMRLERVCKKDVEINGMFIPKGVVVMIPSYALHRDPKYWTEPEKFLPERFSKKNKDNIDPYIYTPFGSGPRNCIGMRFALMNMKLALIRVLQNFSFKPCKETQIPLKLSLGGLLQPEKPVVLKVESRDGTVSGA

[8] = target: Cytochrome P450 2D6 (Homo sapiens, UniProt P10635); assay: Inhibition of CYP2D6 upto 10 uM; assay type: ADME
Sequence of Cytochrome P450 2D6 (P10635 whole entry): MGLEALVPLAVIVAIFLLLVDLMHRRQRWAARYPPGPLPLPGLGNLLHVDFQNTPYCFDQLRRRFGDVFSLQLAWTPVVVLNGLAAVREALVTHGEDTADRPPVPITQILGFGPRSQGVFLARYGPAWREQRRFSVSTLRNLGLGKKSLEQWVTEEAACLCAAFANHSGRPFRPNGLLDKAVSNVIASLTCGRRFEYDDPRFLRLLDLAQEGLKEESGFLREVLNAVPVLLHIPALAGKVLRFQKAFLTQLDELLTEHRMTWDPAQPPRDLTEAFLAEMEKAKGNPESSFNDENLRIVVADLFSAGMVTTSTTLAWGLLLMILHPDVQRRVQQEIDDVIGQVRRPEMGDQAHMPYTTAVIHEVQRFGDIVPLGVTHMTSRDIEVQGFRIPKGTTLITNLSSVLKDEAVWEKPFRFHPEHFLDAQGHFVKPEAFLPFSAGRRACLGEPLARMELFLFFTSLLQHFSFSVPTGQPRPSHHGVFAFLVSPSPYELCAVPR

[9] = target: Cytochrome P450 2C9 (Homo sapiens, UniProt P11712); assay: Inhibition of CYP2C9 upto 10 uM; assay type: ADME
Sequence of Cytochrome P450 2C9 (P11712 whole entry): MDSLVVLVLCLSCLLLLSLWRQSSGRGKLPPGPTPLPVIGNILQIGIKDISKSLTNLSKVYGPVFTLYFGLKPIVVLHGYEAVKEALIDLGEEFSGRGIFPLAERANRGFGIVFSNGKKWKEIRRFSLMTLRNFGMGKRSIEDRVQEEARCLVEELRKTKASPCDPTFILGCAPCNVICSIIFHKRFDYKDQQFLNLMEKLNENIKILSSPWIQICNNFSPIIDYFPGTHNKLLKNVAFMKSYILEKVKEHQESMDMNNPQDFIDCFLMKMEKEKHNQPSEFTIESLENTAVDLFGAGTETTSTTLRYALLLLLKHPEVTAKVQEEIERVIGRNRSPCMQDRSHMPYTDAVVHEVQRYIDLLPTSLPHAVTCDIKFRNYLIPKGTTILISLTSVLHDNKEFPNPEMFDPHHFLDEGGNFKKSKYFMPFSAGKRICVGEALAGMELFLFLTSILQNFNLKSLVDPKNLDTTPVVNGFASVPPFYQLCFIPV

[10] = Cmax in mouse at 5 mg/kg, iv; assay type: ADME, organism-based; design: dose 5 mg/kg, route intravenous; details: in vivo
[11] = Tmax in mouse at 5 mg/kg, iv; assay type: ADME, organism-based; design: dose 5 mg/kg, route intravenous; details: in vivo
[12] = AUC (0 to t) in mouse at 5 mg/kg, iv; assay type: ADME, organism-based; design: dose 5 mg/kg, route intravenous; details: plasma
[13] = AUC (0 to infinity) in mouse at 5 mg/kg, iv; assay type: ADME, organism-based; design: time infinity, dose 5 mg/kg, route intravenous; details: plasma
[14] = Plasma clearance in mouse at 5 mg/kg, iv; assay type: ADME, organism-based; design: dose 5 mg/kg, route intravenous; details: plasma
[15] = Cmax in mouse at 20 mg/kg, sc; assay type: ADME, organism-based; design: dose 20 mg/kg, route subcutaneous; details: in vivo
[16] = Tmax in mouse at 20 mg/kg, sc; assay type: ADME, organism-based; design: dose 20 mg/kg, route subcutaneous; details: in vivo
[17] = Half life in mouse at 20 mg/kg, sc; assay type: ADME, organism-based; design: dose 20 mg/kg, route subcutaneous; details: in vivo
[18] = AUC (0 to t) in mouse at 20 mg/kg, sc; assay type: ADME, organism-based; design: dose 20 mg/kg, route subcutaneous; details: plasma
[19] = AUC (0 to infinity) in mouse at 20 mg/kg, sc; assay type: ADME, organism-based; design: time infinity, dose 20 mg/kg, route subcutaneous; details: plasma
[20] = Oral bioavailability in mouse at 20 mg/kg, sc; assay type: ADME, organism-based; details: in vivo, subcutaneous
[21] = Half life in mouse at 5 mg/kg, iv; assay type: ADME, organism-based; design: dose 5 mg/kg, route intravenous; details: in vivo
[22] = Terminal volume of distribution in mouse at 5 mg/kg, iv; assay type: ADME, organism-based; design: dose 5 mg/kg, route intravenous; details: in vivo, read-out: Vbeta
[23] = Fractional bioavailability in rat at 5 mg/kg, iv and 5 mg/kg, po; assay type: ADME, organism-based; details: in vivo
[24] = test system: Rattus norvegicus; assay: Antinociceptive efficacy in ip dosed spinal nerve ligated Sprague-Dawley rat assessed as reduction of neuropathic pain in paw; assay type: functional
[25] = target: T1, Histamine H4 receptor (Rattus norvegicus, UniProt Q91ZY1); assay: Antagonist activity at rat histamine H4 receptor expressed in HEK293 cells assessed as inhibition of histamine-induced intracellular calcium elevation by FLIPR assay; assay type: functional, cell-based
T1 sequence (Q91ZY1 whole entry): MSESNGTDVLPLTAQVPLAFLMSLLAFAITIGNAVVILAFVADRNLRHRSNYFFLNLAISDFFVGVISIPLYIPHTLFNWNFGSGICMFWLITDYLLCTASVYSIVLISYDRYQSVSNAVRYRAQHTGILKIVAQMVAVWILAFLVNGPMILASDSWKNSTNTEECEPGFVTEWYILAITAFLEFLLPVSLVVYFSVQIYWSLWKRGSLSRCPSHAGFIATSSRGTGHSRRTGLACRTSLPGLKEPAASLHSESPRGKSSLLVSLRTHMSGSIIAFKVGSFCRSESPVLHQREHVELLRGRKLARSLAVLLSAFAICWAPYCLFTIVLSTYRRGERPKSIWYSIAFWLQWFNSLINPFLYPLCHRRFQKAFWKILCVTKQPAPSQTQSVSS

[26] = target: T2, Histamine H4 receptor (Mus musculus, UniProt Q91ZY2); assay: Antagonist activity at mouse histamine H4 receptor expressed in HEK293 cells assessed as inhibition of histamine-induced intracellular calcium elevation by FLIPR assay; assay type: functional, cell-based
T2 sequence (Q91ZY2 whole entry): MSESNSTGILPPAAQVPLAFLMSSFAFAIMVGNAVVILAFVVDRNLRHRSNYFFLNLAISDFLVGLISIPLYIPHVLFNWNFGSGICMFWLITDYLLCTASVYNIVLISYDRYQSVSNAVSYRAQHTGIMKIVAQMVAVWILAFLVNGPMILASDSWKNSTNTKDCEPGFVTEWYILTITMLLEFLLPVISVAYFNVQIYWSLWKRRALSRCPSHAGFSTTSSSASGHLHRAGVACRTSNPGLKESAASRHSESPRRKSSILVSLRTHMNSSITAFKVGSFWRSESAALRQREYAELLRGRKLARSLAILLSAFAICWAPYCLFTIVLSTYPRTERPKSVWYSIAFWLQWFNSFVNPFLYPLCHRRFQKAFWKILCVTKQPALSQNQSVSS

[27] = target: T3, Histamine H4 receptor (Homo sapiens, UniProt Q9H3N8); assay: Displacement of [3H]histamine from human histamine H4 receptor expressed in HEK293 cells; assay type: cell-based; details: read-out: Ki
T3 sequence (Q9H3N8 whole entry): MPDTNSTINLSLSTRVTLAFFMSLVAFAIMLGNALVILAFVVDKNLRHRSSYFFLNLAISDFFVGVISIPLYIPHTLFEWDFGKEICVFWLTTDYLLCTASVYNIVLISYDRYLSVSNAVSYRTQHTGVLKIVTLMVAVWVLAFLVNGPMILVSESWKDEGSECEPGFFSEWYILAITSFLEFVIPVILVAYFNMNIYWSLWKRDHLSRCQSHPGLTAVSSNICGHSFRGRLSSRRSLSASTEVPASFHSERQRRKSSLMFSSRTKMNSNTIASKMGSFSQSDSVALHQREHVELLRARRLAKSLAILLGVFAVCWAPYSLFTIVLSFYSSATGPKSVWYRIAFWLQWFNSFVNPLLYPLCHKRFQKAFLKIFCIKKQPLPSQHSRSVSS

[28] = target: T1, Histamine H4 receptor; assay: Displacement of [3H]histamine from rat histamine H4 receptor expressed in HEK293 cells; assay type: cell-based
[29] = Selectivity ratio of Ki for human histamine H4 receptor to Ki for histamine H1 receptor
[30] = Selectivity ratio of Ki for human histamine H4 receptor to Ki for histamine H2 receptor
[31] = organism: Homo sapiens; assay: Selectivity ratio of Ki for human histamine H4 receptor to Ki for human histamine H3 receptor
[32] = Selectivity ratio of Ki for human histamine H4 receptor to Ki for 5HT1A receptor
[33] = Selectivity ratio of Ki for human histamine H4 receptor to Ki for 5HT1D receptor
[34] = Selectivity ratio of Ki for human histamine H4 receptor to Ki for 5HT2A receptor
[35] = Selectivity ratio of Ki for human histamine H4 receptor to Ki for dopamine D2 receptor
[36] = Selectivity ratio of Ki for human histamine H4 receptor to Ki for adrenergic alpha1 receptor
[37] = Half life in rat at 10 mg/kg, iv; assay type: ADME, organism-based; design: dose 10 mg/kg, route intravenous; details: in vivo
[38] = Blood clearance in rat at 10 mg/kg, iv; assay type: ADME, organism-based; design: dose 10 mg/kg, route intravenous; details: whole blood
[39] = Terminal volume of distribution in rat at 10 mg/kg, iv; assay type: ADME, organism-based; design: dose 10 mg/kg, route intravenous; details: in vivo, read-out: Vbeta
[40] = Fractional bioavailability in rat at 10 mg/kg, iv and 10 mg/kg, po; assay type: ADME, organism-based; details: in vivo
[41] = Blood clearance in mouse at 5 mg/kg, iv; assay type: ADME, organism-based; design: dose 5 mg/kg, route intravenous; details: whole blood
[42] = Ratio of drug level in brain to plasma in rat at 10 mg/kg, iv after 30 mins; assay type: ADME, organism-based; design: dose 10 mg/kg, route intravenous
[43] = test system: Mus musculus; assay: Antiinflammatory activity against ip dosed BALB/c mouse assessed as inhibition of zymosan-induced peritonitis after 2 hrs pretreated 30 mins before zymosan challenge; assay type: functional
[44] = test system: Mus musculus; assay: Inhibition of clobenpropit-induced itching in ip dosed CD1/ICR mouse assessed as blockade of scratching in hind paw for 25 mins pretreated 30 mins before clobenpropit challenge; assay type: functional
[45] = target: T3, Histamine H4 receptor; details: HEK293

## CN1CCN(C(=O)c2cc3cc(Cl)ccc3[nH]2)CC1 [JNJ-7777120]
[1]
  Activity: Active
[2]
  Stability: 179 pmol/min/mg
[3]
  Stability: 19 pmol/min/mg
[4]
  Stability: 143 pmol/min/mg
[5]
  fraction unbound: 0.28
[6]
  fraction unbound: 0.23
[7]
  Activity: Not Active
[8]
  Activity: Not Active
[9]
  Activity: Not Active
[10]
  Cmax: 2220 nM
[11]
  Tmax: 6 min
[12]
  AUC(0-t): 0.9 µM·h
[13]
  AUC(0-inf): 0.9 µM·h
[14]
  clearance: 334 mL/min/kg
[15]
  Cmax: 500 nM
[16]
  Tmax: 30 min
[17]
  half-life: 58.2 min
[18]
  AUC(0-t): 2.79 µM·h
[19]
  AUC(0-inf): 2.79 µM·h
[20]
  bioavailability: 77.6%
[21]
  half-life: 22.8 min
[22]
  Vd: 11 L/kg
[23]
  bioavailability: 24.1%
[24]
  ED50: 217 µmol/kg

## Nc1nc2c(c(N3CCNCC3)n1)CCCc1ccccc1-2
[25]
  EC50: 14.8 nM
[26]
  EC50: 18.2 nM
[27]
  Ki: 71 nM
[28]
  Ki: 7.59 nM
[1]
  Activity: Active
[29]
  Ratio Ki: > 93
[30]
  Ratio Ki: > 130
[31]
  Ratio Ki: 52
[32]
  Ratio Ki: 13
[33]
  Ratio Ki: 17
[34]
  Ratio Ki: > 185
[35]
  Ratio Ki: > 140
[36]
  Ratio Ki: 110
[2]
  Stability: 95.4 pmol/min/mg
[3]
  Stability: 14.5 pmol/min/mg
[4]
  Stability: 14 pmol/min/mg
[5]
  fraction unbound: 0.42
[6]
  fraction unbound: 0.56
[7]
  Activity: Not Active
[8]
  Activity: Not Active
[9]
  Activity: Not Active
[37]
  half-life: 132 min
[38]
  clearance: 102 mL/min/kg
[39]
  Vd: 19.9 L/kg
[40]
  bioavailability: 37%
[21]
  half-life: 294 min
[41]
  clearance: 378 mL/min/kg
[22]
  Vd: 88.9 L/kg
[23]
  bioavailability: 33%
[42]
  Kp at 0.5 h: 2.1
[43]
  ED50: 21 µmol/kg
[44]
  ED50: > 72 µmol/kg
[45]
  pKb: 7.13
